Assay results taken from patent US20250170265A1 (priority 2023, published 2025).
Values joined by “and” are separate entries in the source; they are usually repeats but may differ in a detail not shown here. Equal values may be shown once. Read-outs that look alike come from different tables or passages of the source.

Tests used:
[1] = tested on: supercoiled pBR322 plasmid DNA; type: biochemical
[2] = tested on: pBR322; type: biochemical
[3] = Stability of diazonium compounds (NMR in D2O with acetonitrile internal standard); type: physicochemical
[4] = tested on: linearized (EcoRV-HF-digested) pBR322 double stranded DNA
[5] = tested on: HeLa cells
Procedure: General cell culture protocol: HeLa cells were grown in DMEM growth media (GIBCO 11995065) with 10% FBS (GIBCO A5670401) in 75 cm^2 surface treated culture dishes (Fisherbrand FB012937) and were incubated in a cell culture chamber (37° C. with 5% CO2). Cells were kept at a maximum confluency of 80% and passaged up to 20 times. For each passage, the cells were washed with 1×PBS (GIBCO 20012027), detached from the plate by incubation with 0.25% Trypsin-EDTA (GIBCO 25200072) for 3-4 minutes in the cell culture chamber, and then diluted with growth media. The cells were spun down at 300×g at 4° C. for 5 minutes, resuspended with fresh growth media, and replated in a new flask.
Cell viability assay and IC50 procedure: The media in the cell culture dish was aspirated, and the cells were washed with 1×PBS. The cells were detached from the plate by 4-minute incubation with 0.25% Trypsin-EDTA in the cell culture chamber. The cells were then diluted with DMEM and were spun down at 300×g at 4° C. for 5 minutes. The media was aspirated, and the cell pellet was resuspended in fresh DMEM. The cells were counted and seeded in 6-well culture plates at 50,000 cells/well and incubated overnight. Alongside the 6-well plates, 35 mm glass bottom confocal plates (Fisher Scientific NC0409658) were also seeded with 50,000 cells/plate. 24 hours after the initial seeding, the media in the plates were aspirated and the cells were washed with 1×PBS. […] The wash buffer was aspirated from the plates and 2 mL of the corresponding diazonium dilutions was added to the respective wells in the 6-well plates, all in triplicate, in addition to the confocal plates. All plates were incubated in ambient light for 45 minutes in the cell culture hood and then for 1 hour in the cell culture chamber (37° C. with 5% CO2). Control wells with 2 mL 1×PBS pH 6.6 alone with no diazonium as well as additional control wells with 2 mL DMEM alone with no diazonium, all in triplicate, were also incubated alongside the wells with the diazonium solutions. The plates were then removed from the incubators and the solutions from all the dishes were aspirated and replaced with 2 mL of fresh DMEM. The plates were incubated in the cell culture chamber for 3 days. After the 3-day incubation, the respective cell viability of each well was measured using the PrestoBlue™ Cell Viability Procedure. To each well was added 200 μL of 10× PrestoBlue™ Cell Viability Reagent (ThermoFisher Scientific A13261) and the plates were then incubated in the cell culture chamber for 3 hours. The plates were then analyzed using a plate reader (SpectraMax iD5) by measuring the fluorescence at an excitation of 560 nm and emission of 590 nm. […]

[6] = tested on: supercoiled pBR322 plasmid DNA; conditions: for EC50: 525 nm
[7] = tested on: supercoiled pBR322 plasmid DNA; conditions: read-out: EC50 value
[8] = tested on: supercoiled pBR322 plasmid DNA

Which EC50 ([1]; read-out: EC50 value) does the source give for `COc1ccc([N+]#N)cc1.F[B-](F)(F)F` [Compound 5, 4-methoxy-benzene-1-diazonium tetrafluoroborate] here?
The EC50 was 69800 nM.

For “(S)-[1,1′-binaphthalene]-2,2′-bisdiazonium tetrafluoroborate [Compound 24]”, which EC50 ([1]; read-out: EC50 value) is on record?
Its EC50 is 140 nM.

Which EC50 ([1]; read-out: EC50 value) does the source give for “benzophenone-4,4′-bisdiazonium tetrafluoroborate [Compound 17]” here?
The EC50 was 24 nM.

For “benzophenone-3,3′-bisdiazonium tetrafluoroborate [Compound 18]”, which EC50 ([1]; read-out: EC50 value) is on record?
Its EC50 is 31.5 nM.

With `Nc1cccc2c(N)cccc12` [1,5-diaminonaphthalene, reference compound] as the compound, how does the “cleavage of pBR322 (gel pattern)” value [2] read?
The value was “no cleavage was observed”.

With `F[B-](F)(F)F.F[B-](F)(F)F.N#[N+]c1cccc2c([N+]#N)cccc12` [Compound 10, naphthalene-1,5-bisdiazonium tetrafluoroborate] as the compound, how does the “cleavage of pBR322 (gel pattern)” value ([2]; 500 nM, 525 nm irradiation 1.5 hours) read?
Its value is “two new bands”.

And the diazonium/IS ratio ([3]; 1 hour)?
The diazonium/IS ratio was 0.59.

What about the diazonium/IS ratio ([3]; 2 hours) of the same compound?
Its diazonium/IS ratio is 0.56.

What about the diazonium/IS ratio ([3]; 6 hours) of the same compound?
Its diazonium/IS ratio is 0.49.

What about the diazonium/IS ratio ([3]; 24 hours) of the same compound?
Its diazonium/IS ratio is 0.41.

And the diazonium/IS ratio ([3]; T0 (immediately after sample preparation))?
Its diazonium/IS ratio is 0.62.

What about the EC50 ([1]; read-out: EC50 value) of the same compound?
The EC50 was 31.7 nM.

What does the source list for “tetrakis(benzene-4-diazonium)methane tetrafluoroborate [Compound 28]”?
concentrations giving noticeable cleavage into low molecular weight fragments ([4]; pre-linearized pBR322 (Form III, 40 μM/bp), 525 nm light in water for 1 hour): ≥ 100 nM; EC50 ([4]; read-out: EC50 value, linearized pBR322, green light 525 nm, supercoiled pBR322 as internal standard): 126 nM; plate confluency after 3 days ([5]; 1.25 μM): over 90%; plate confluency after 3 days ([5]; 10 μM): less than 10%; IC50 (cell viability) ([5]; ambient light 45 min then 1 h at 37° C., 3-day incubation): 5.23 µg/mL; IC50 ([5]; read-out: IC50 (cell viability), ambient light 45 min then 1 h at 37° C., 3-day incubation): 6710 nM; decrease in activity, degassed vs standard deionized water [6]: 2 log scale; EC50 ([6]; degassed deionized water): 172 nM; EC50 ([6]; standard deionized water, run alongside as control): 1.64 nM; DNA cleavage potency (in words) [1]: excellent potency; EC50 [1]: 0.00214 µg/mL; EC50 ([1]; read-out: EC50 value): 2.76 nM; EC50 [7]: 3.62 nM and 13.7 nM and 14.9 nM; EC50 ([8]; read-out: DNA cleavage EC50 value, in the dark without cysteine): 976 nM and ~1000 nM and 1000 nM; EC50 ([8]; read-out: EC50 value, presence of cysteine in the dark): 30.8 nM

With `F[B-](F)(F)F.N#[N+]c1ccccc1` [Compound 1, benzenediazonium tetrafluoroborate] as the compound, how does the “DNA cleavage potency (in words)” value [1] read?
The value was “limited activity”.

And the EC50 ([1]; read-out: EC50)?
Its EC50 is 18800 nM.

Which EC50 ([1]; read-out: EC50 value) does the source give for “(R)-[1,1′-binaphthalene]-2,2′-bisdiazonium tetrafluoroborate [Compound 23]” here?
The EC50 was 42 nM.

Which EC50 ([1]; read-out: EC50 value) does the source give for `N#[N+]c1ccc([N+](=O)[O-])c2ccccc12` [Compound 7, 4-nitro-naphthalene-1-diazonium tetrafluoroborate] here?
The EC50 was 531 nM.

With “N^1,N^3,N^5-tris(benzene-4-diazonium)benzene-1,3,5-tricarboxamide tetrafluoroborate [Compound 29]” as the compound, how does the “DNA cleavage potency (in words)” value [1] read?
The value was “no notable improvement”.

What about the EC50 ([1]; read-out: EC50 value) of the same compound?
Its EC50 is 101 nM.

With “ethidium bisdiazonium tetrafluoroborate [Compound 26]” as the compound, how does the “DNA cleavage potency (in words)” value [1] read?
Its value is “only modest potency”.

What about the EC50 ([1]; read-out: EC50 value) of the same compound?
Its EC50 is 136 nM.

With “tetrakis(benzene-4-diazonium)ethylene tetrafluoroborate [Compound 27]” as the compound, how does the “DNA cleavage potency (in words)” value [1] read?
Its value is “excellent potency”.

And the EC50 ([1]; read-out: EC50 value)?
The EC50 was 33 nM.
